Experimental data as given in ChEMBL document CHEMBL1158459, “Discovery of a peroxisome proliferator activated receptor gamma (PPARgamma) modulator with balanced PPARalpha activity for the treatment of type 2 diabetes and dyslipidemia” (J Med Chem, 2009).
pEC50, pIC50: −log10 of the molar value.

What was measured:
[1] = AUC in rat at 2 mg/kg, po; format: ADME, organism-based, Plasma; set-up: dose 2 mg/kg, route oral; details: plasma
[2] = molecular target: T1, Peroxisome proliferator-activated receptor alpha (Homo sapiens, UniProt Q07869); assay: Inhibition of human PPARalpha receptor by scintillation proximity assay
T1 sequence (Q07869 whole entry): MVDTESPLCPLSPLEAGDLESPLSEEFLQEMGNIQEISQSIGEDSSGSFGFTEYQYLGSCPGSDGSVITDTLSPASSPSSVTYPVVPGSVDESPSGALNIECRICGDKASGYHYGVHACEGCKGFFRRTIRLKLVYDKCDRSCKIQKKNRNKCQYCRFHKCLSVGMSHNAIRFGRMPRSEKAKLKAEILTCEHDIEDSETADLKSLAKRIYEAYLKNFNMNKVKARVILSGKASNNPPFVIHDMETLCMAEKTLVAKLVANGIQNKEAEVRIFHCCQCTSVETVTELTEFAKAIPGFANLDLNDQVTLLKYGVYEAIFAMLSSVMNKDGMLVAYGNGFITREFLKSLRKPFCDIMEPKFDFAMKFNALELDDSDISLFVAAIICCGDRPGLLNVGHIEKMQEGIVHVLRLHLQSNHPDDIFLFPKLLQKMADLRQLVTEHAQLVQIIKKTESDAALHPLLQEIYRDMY

[3] = molecular target: T1, Peroxisome proliferator-activated receptor alpha; format: functional, cell-based, COS-1
Description: Agonist activity at human PPARalpha receptor expressed in african green monkey COS1 cells co-transfected with fused yeast Gal4-DBD by transactivation assay

[4] = molecular target: T2, Peroxisome proliferator-activated receptor alpha (Mus musculus, UniProt P23204); assay: Agonist activity at mouse PPARalpha receptor expressed in african green monkey COS1 cells co-transfected with fused yeast Gal4-DBD by transactivation assay; format: functional, cell-based, COS-1
T2 sequence (P23204 whole entry): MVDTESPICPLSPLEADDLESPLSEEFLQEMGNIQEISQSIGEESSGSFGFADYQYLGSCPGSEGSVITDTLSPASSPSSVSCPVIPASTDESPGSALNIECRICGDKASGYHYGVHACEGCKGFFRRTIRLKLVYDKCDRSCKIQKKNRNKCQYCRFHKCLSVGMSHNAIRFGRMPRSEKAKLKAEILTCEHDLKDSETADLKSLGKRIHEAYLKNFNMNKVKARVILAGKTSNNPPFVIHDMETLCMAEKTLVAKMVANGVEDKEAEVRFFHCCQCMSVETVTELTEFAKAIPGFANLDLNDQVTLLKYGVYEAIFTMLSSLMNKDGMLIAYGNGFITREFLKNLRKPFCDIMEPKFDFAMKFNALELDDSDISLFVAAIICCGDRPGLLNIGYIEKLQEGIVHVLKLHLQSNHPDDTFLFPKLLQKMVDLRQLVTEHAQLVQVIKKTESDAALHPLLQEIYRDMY

Mus musculus [5] = assay: Antidiabetic activity in C57BLKS/J-m+/+Leprdb db/db mouse assessed as reduction in plasma glucose levels at 10 mg/kg, po once daily for 11 days relative to control; format: functional; set-up: scale not given: the % may be the effect or the level left
Mus musculus [6] = assay: Antidiabetic activity in C57BLKS/J-m+/+Leprdb db/db mouse assessed as reduction in plasma triglyceride levels at 10 mg/kg, po once daily for 11 days relative to control; format: functional; set-up: scale not given: the % may be the effect or the level left
[7] = molecular target: T3, Peroxisome proliferator-activated receptor gamma (Homo sapiens, UniProt P37231)
T3 sequence (P37231 whole entry): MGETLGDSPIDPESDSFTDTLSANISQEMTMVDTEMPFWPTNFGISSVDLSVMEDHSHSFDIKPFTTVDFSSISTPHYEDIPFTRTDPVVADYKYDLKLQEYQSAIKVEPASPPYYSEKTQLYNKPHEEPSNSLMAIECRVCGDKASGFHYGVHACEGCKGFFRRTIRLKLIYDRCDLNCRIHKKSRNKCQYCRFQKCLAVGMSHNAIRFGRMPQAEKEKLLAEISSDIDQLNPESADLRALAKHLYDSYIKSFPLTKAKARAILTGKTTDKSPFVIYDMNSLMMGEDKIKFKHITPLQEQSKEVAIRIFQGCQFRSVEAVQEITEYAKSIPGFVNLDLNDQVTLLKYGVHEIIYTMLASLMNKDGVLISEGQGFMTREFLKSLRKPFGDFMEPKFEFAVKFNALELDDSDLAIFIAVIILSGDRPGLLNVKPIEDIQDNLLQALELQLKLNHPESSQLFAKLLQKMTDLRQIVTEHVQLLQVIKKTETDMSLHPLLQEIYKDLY
Description: Inhibition of human PPARgamma receptor by scintillation proximity assay

[8] = molecular target: T3, Peroxisome proliferator-activated receptor gamma; remark: listed apart in the source
Description: Agonist activity at human PPARgamma receptor expressed in african green monkey COS1 cells co-transfected with fused yeast Gal4-DBD by transactivation assay

[9] = AUC in C57BLKS/J-m+/+Leprdb db/db mouse at 10 mg/kg, po once daily for 11 days; format: ADME, organism-based; set-up: dose 10 mg/kg, route oral; details: plasma

| Compound | AUC [1] [µM·h] | pIC50 [2] | pEC50 [3] | pEC50 [4] | Activity (Mus musculus [5]) [%] | Activity (Mus musculus [6]) [%] | pIC50 [7] | pEC50 [8] | AUC at 264 h [9] [µM·h] |
| --- | --- | --- | --- | --- | --- | --- | --- | --- | --- |
| CCC[C@@H](Oc1cccc(Cn2c(C)c(C(=O)c3ccc(Cl)cc3)c3ccc(OC(F)(F)F)cc32)c1)C(=O)O | 1.7 | < 4.82 | 6.42 | 6.96 | 94 | 80 | 7.92 | 8.00 | – |
| CC[C@H](Oc1cccc(Cn2c(C)c(C(=O)c3ccc(Cl)cc3)c3ccc(OC(F)(F)F)cc32)c1)C(=O)O | – | < 4.82 | 6.30 | < 5.52 | 22 | 7 | 8.40 | 8.22 | – |
| CCc1ccc(CCOc2ccc(CC3SC(=O)NC3=O)cc2)nc1 (stereo not drawn) [PIOGLITAZONE] | – | – | – | – | 53 | 65 | – | – | 180 |
| Cc1c(C(=O)c2ccc(Cl)cc2)c2ccc(OC(F)(F)F)cc2n1Cc1cccc(O[C@@H](C)C(=O)O)c1 | 0.6 | < 4.82 | 5.31 | < 5.52 | 53 | 4 | – | – | – |
| Cc1c(C(=O)c2ccc(Cl)cc2)c2ccc(OC(F)(F)F)cc2n1Cc1cccc(O[C@H](C(=O)O)C(C)C)c1 | 1.5 | 5.53 | 6.43 | 6.44 | 76 | 37 | 7.77 | 7.68 | – |
| Cc1c(C(=O)c2ccc(Cl)cc2)c2ccc(OC(F)(F)F)cc2n1Cc1cccc(O[C@H](C)C(=O)O)c1 | 1.1 | < 4.82 | 6.49 | 7.55 | 105 | 90 | 7.96 | 8.40 | – |
| Cc1c(C(=O)c2ccc(Cl)cc2)c2ccc(OC(F)(F)F)cc2n1Cc1cccc(O[C@@H](C(=O)O)C(C)C)c1 | 3.5 | 6.31 | 8.70 | 7.40 | 101 | 87 | 8.00 | 8.70 | – |
| Cc1c(Cc2cccc(OCC(=O)O)c2)c2cc(OC(F)(F)F)ccc2n1C(=O)c1ccc(Cl)cc1 | – | < 4.82 | < 5.52 | < 5.52 | – | – | 9.00 | 8.52 | – |
